Measurements reported in the NIST ThermoML archive (doi:10.1021/je700404u).
± gives the expanded uncertainty stated by the source.

What was measured:
[1] = refractive index (Na D-line) (dimensionless); settings: 293.15 K; 101.33 kPa; Liquid; Standard Abbe refractometry
[2] = 293.15 K; 101.33 kPa; Liquid

CCOCCO [2-ethoxyethan-1-ol]
refractive index [1]: 1.4065 ± 0.0007
mass density [2]: 929 ± 1 kg/m3

CC(C)=O [acetone]
refractive index [1]: 1.359 ± 0.0007
mass density [2]: 790 ± 1 kg/m3

CCO [ethanol]
refractive index [1]: 1.3619 ± 0.0007
mass density [2]: 789 ± 1 kg/m3

CO [methanol]
refractive index [1]: 1.3287 ± 0.0007
mass density [2]: 791 ± 1 kg/m3
